Laboratory results: patent US8124645B2, “LPA receptor antagonist” (Ono Pharmaceutical Co., Ltd., priority 2002, dated 2012)

These molecules were tested against T1, human EDG-2 (Homo sapiens, UniProt Q92633) (assay: Evaluation of EDG-2 antagonistic activity by monitoring the change of intracellular calcium ion concentration). Conditions: CHO cells overexpressing human EDG-2 gene; LPA final concentration 100 nM; intracellular calcium ion concentration (Fura2-AM).
T1 construct: expressed in transfected cells; host or cells: Chinese hamster ovary (CHO) cells
Format: cell-based
Procedure: A series of the procedure is based on the basic gene manipuration technique, that is gene overexpressed cells are prepared and a conventional method was utilized. The usual method of measurement was improved for getting enhancement of measurement precision and/or measurement sensitivity of the evaluation of compounds in the present invention. A detailed method of the experiment was shown in the following clause.
Evaluation of EDG-2 antagonistic activity by monitoring the change of intracellular calcium ion concentration
Evaluation of EDG-2 antagonistic activity was carried out by using Chinese hamster ovary (CHO) cells which overexpressed human EDG-2 gene. Those cells were cultured with Ham's F12 medium (GIBCO BRL company No. 11765-047) containing 10% FBS (fetal bovine serum), penicillin/streptomycin and blasticidin (5 μg/ml). At first in order to uptake Fura2-AM (Dojindo company No. 348-05831) into the cells, cells were incubated for 60 minutes at 37 degrees in Fura2-AM (5 μM) solution [Ham's F12 medium containing 10% FBS, 20 mM HEPES buffer (pH 7.4) and 2.5 mM probenecid (Sigma company No. P-8761)]. Next, it was washed with Hanks solution containing HEPES buffer (20 mM, pH 7.4) and probenecid (2.5 mM) once, and immersed into the Hanks solution. Plates were set in fluorescent drug screening system (Hamamatsu photonics company, FDSS-2000) and intracellular calcium ion concentration was measured for 30 seconds with no stimulation and then solution of the compound of the present invention of formula (I) was added. Five minutes after adding thereto LPA (final concentration: 100 nM) was added, the increase of intracellular calcium ion concentrations before and after the addition of LPA (excitation wave length: […]; fluorescent wave length: […]) were measured every 3 seconds. The compound of the present invention represented by the formula (I) was dissolved in dimethyl sulfoxide (DMSO), and it was added so that the final concentration became 1 nM to 10 μM. 1-oleoyl (18:1)-LPA (Sigma) or 1-linolenoyl (18:3)-LPA was used as LPA. […]

T1 sequence (Q92633 whole entry): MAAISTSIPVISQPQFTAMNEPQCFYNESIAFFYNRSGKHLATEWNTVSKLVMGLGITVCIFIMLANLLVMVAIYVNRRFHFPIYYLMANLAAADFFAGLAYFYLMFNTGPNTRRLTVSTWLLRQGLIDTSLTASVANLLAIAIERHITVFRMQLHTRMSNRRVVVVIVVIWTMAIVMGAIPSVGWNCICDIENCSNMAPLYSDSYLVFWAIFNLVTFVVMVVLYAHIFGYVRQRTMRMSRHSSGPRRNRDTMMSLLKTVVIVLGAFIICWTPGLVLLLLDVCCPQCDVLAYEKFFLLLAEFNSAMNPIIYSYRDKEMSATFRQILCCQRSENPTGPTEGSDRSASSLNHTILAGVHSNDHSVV

| IC50 | SMILES |
| --- | --- |
| 110 nM | COc1cc(C(=O)C(CCCc2ccccc2)Cc2ccc(Oc3ccccc3C(=O)O)cc2)cc(OC)c1OC (stereo not drawn) [8(1), 2-(4-(2-(3,4,5-trimethoxyphenylcarbonyl)-5-phenylpentyl)phenyloxy)benzoic acid] |
| 95 nM | COc1cc(OC)cc(C(=O)N(CCCc2ccccc2)Cc2ccc(Oc3ccccc3C(=O)O)cc2)c1 [3(33), 2-(4-(N-(3,5-dimethoxyphenylcarbonyl)-N-(3-phenylpropyl)aminomethyl)phenyloxy)benzoic acid] |
| 150 nM | COc1cc(C(=O)N(CCCc2ccccc2)Cc2ccc(CC(=O)O)cc2)cc(OC)c1C [Example 2(4), (4-(N-(3,5-dimethoxy-4-methylphenylcarbonyl)-N-(3-phenylpropyl)aminomethyl)phenyl)acetic acid] |
